Test results as given in patent publication US8609358B2, “Methods, peptides and biosensors useful for detecting a broad spectrum of bacteria” (priority 2003, dated 2013).
Primed or numbered codes have the meaning given here. Dabcyl′ = FRET label; Edans = FRET label

Key:
[1] = test system: proteases of Serratia; assay: Surface sensor sensitivity: cleavage of CPI2 by bacterial proteases; type: biochemical, Serratia marcescens; settings: for sensor signal: end of sensor study (40 hours)
Protocol: (§1) CPI2 was determined to be a good candidate for a broad-spectrum sensor. Surface sensors were constructed as follows:
(§2) Membrane used: Pall SB6407
(§3) The sensors were air dried and stored overnight at −20° C. Sensors were loaded into sterile 96 well plates for the sensitivity study.
(§4) The bacteria E. faecalis, P. aeruginosa, S. aureus, S. pyogenes, and S. marcescens were grown in an incubator overnight at 37° C. in 5 ml BHI (Brain Heart Infusion) media and diluted to the concentrations given for each experiment. Each strain of bacteria was diluted with PBS (pH 7.4) to obtain an optical density (OD) of approximately 0.52 at 550 nm. This OD was assumed to represent approximately 10^8 cells/ml of bacteria. The 10^8 cells/ml stock of each bacteria was diluted with PBS to obtain a concentration series of: 10^7, 10^6, 10^5 and 10^4 cells/ml. Sensitivity testing consisted of placing 100 μL of each of the concentration series of 10^7, 10^6, 10^5 and 10^4 cells/ml (cells) onto a row of sensors. Controls for each sensitivity testing consisted of sensors exposed to 100 μL PBS.
Data was taken at 4, 24 and 48 hours for each plate. Data consisted of color (fluorescent) images of each plate taken under relatively uniform conditions (lighting, exposure time, etc.) using a Kodak DC290 digital camera. Images were analyzed using NIH ImageJ, a public domain image processing and analysis program developed at the National Institutes of Health (NIH). Analysis consisted of measuring the intensity value within each well (i.e., the sum of the intensity values of all the pixels in the selection divided by the number of pixels). Pixels range in value from 0 to 1. […] All sensor sensitivity data is plotted on an index scale from 0 to 1 versus time and the trends accurately reflect what is seen in the images.

[2] = test system: proteases of Pseudomonas; assay: as above; type: biochemical, Pseudomonas aeruginosa
Protocol: as §1, §2, §3, §4
(§5) Data was taken at 4, 24 and 48 hours for each plate. […] Images were analyzed using NIH ImageJ, a public domain image processing and analysis program developed at the National Institutes of Health (NIH). […]

[3] = test system: proteases of Streptococcus; assay: as above; type: biochemical, Streptococcus pyogenes
Protocol: as §1, §2, §3, §4, §5

[4] = test system: proteases of Staphylococcus; assay: as above; type: biochemical, Staphylococcus aureus
Protocol: as §1, §2, §3, §4, §5

[5] = test system: proteases of Enterococcus; assay: as above; type: biochemical, Enterococcus faecalis
Protocol: as §1, §2, §3, §4, §5

[6] = test system: five different clinical strains of E. faecalis; assay: Inter-strain operability; type: biochemical, Enterococcus faecalis; settings: all five clinical strains
From the text: A CIP2 fluorescent resonance entergy transfer (FRET) peptide was exposed to five different clinical strains of E. faecalis (obtained from the University of Colorado). […] FIG. 12 illustrates a graph of the relative fluorescence measured after exposure to the various strains.

[7] = test system: E. coli cells or supernatant; assay: Cleavage of CPI2 incubated with E. coli; type: biochemical, Escherichia coli
Protocol: (§6) A culture of each of the following bacterial species was grown overnight (O/N) in Brain Heart Infusion (BHI) broth at 37° C. with vigorous shaking (˜200 rpm), using methods that are standard in the art: Staphylococcus aureus; Streptococcus pyogenes; Serratia marcescens; Escherichia coli; Pseudomonas aeruginosa (PA14); Pseudomonas aeruginosa (GSU3); and Enterococcus faecalis. After overnight growth, a 1 ml sample of each culture was obtained, and the cells were removed from the culture supernatant by centrifugation at 12,000×g for 5 minutes. The remaining culture supernatants were stored on ice until required (less than one hour). The bacteria were assayed for the presence or absence of enzymes as described below.
The bacteria were grown in an incubator overnight at 37° C. in 5 mL BHI (Brain Heart Infusion) media. Each of the resulting cultures was split into two samples. One was used as a culture, and the other was spun down by centrifugation and the supernatant was collected. The assays were run in 20 mM tris buffer (pH 7.2) with 150 mM NaCl added […]. The cleavage reaction was carried out with 7 μL of culture or supernatant and 3 μL of peptide substrate (5 mg/mL in water/DMSO) in 100 μL total volume at 37° C. The reaction was followed on a fluorimetric plate reader using an excitation wavelength of 355 nm and an emission wavelength of 485 nm.

[8] = Cleavage of CPI2 in uninfected wound fluid; type: biochemical; settings: in the presence of uninfected wound fluid
[9] = test system: bacterial culture (media and cells); assay: Broad spectrum FRET assay, overnight bacterial culture; type: biochemical; settings: pH 7.2, 150 mM NaCl, 37° C.
Protocol: as §6
Two peptide substrates, CPI1 and CPI2, were designed to encompass all of the cleavage sites of the RSL sequence, as shown in FIGS. 1A and 1B. The peptide substrates were labeled with the fluorescent probe edans (5-((2-aminoethyl)amino)naphthalene-1-sulfonic acid) and the quencher dye molecule dabcyl ((4-(4-(dimethylamino)phenyl)azo)benzoic acid).
The bacteria were grown in an incubator overnight at 37° C. in 5 mL BHI (Brain Heart Infusion) media. Each of the resulting cultures was split into two samples. […] The reaction was followed on a fluorimetric plate reader using an excitation wavelength of 355 nm and an emission wavelength of 485 nm. […]

[10] = 10^5 bacteria/ml, end of sensor study (40 hours)

Substance	sensor signal ([1]; 10^4 bacteria/ml)	sensor signal ([1]; 10^5 bacteria/ml)	cleavage of peptide substrate ([1]; proteases of Serratia)	sensor signal [2, 10]	cleavage of peptide substrate ([2]; proteases of Pseudomonas)	sensor signal [3, 10]	cleavage of peptide substrate ([3]; proteases of Streptococcus)	sensor signal [4, 10]	cleavage of peptide substrate ([4]; proteases of Staphylococcus)	sensor signal [5, 10]	cleavage of peptide substrate ([5]; proteases of Enterococcus)	reaction with strains (relative fluorescence) [6]	sensor signal ([7]; 10^5 bacteria/ml)	cleavage of peptide substrate ([7]; incubated with E. coli cells or supernatant)	cleavage of peptide substrate [8]	protease activity (relative fluorescence) [9]
Edans-EGAMFLEAIPMSIPK-Dabcyl (Edans-EGAMFLEAIPMSIPK-{Dabcyl′}) [CPI2]	not observed to give a signal that can be significantly measured above the background	strong signal	efficiently cleaved	strong signal	efficiently cleaved	strong signal	efficiently cleaved	strong signal	efficiently cleaved	strong signal	efficiently cleaved	reacted strongly	not	not cleaved	not cleaved	protease activity was observed for a number of the bacteria
Edans-EAAGAMFLEAIPK-Dabcyl (Edans-EAAGAMFLEAIPK-{Dabcyl′}) [CPI1]																protease activity was observed for a number of the bacteria
